# According to patent US6589984B1, “Benzofurylpyrone derivatives” (Teijin Limited, priority 1998, dated 2003):
# pIC50: −log10 of the molar value.
# Test system: Human hepatic cancer cells HepG2
# Assay: TG production inhibiting activity (14C-acetic acid incorporation into TG) in HepG2 cells
# Type: cell-based
# Settings: Homo sapiens, HepG2, group criterion
# Procedure: Human hepatic cancer cells HepG2 were inoculated into a 24-well plate (Costar No. 3524) at 4×10^4 cells/well, and 1 ml of medium (eRDF medium containing 10% bovine serum (Kyokuto Chemical Co.)) was used for 6 day culturing with 5% CO2 at 37° C. After drawing off the supernatant medium, the cells were freshly rinsed with 1 ml of PBS(−) buffer solution (Takara Shuzo) and drawn off. This procedure was repeated twice and then 1 ml of fresh medium (eRDF medium) was added.
# 6-(benzofuran-2-yl)-3,5-dimethyl-4-hydroxy-2H-pyran-2-one (Example 2) was dissolved in dimethylsulfoxide (DMSO) to prepare a 20 mM sample stock solution. A diluted solution was obtained by diluting the sample solution with DMSO.
# To the cells prepared above there were added the sample stock solution or its diluted solution at 5 μl per well and 10 μl of ^14C-acetic acid solution (a solution of Amersham Code No. CFA13 diluted 4.4-fold with PBS(−) buffer), and culturing was carried out for one day with 5% CO2 at 37° C.
# After the culturing was completed, the culture solution was removed, and 1 ml of extraction solution (a mixture of n-hexane and isopropyl alcohol at 2:1) was added for extraction treatment on the lipid components in the cells. After the treatment, the extract containing the obtained lipid components was air-dried, the residue was redissolved in 20 μl of a mixed solution of n-hexane and ethyl acetate at 9:1, and the solution was spotted on a thin-layer chromatography plate (S319, Tokyo Kasei) and developed by thin-layer chromatography with the mixed solution mentioned above. After air-drying, the lipid components were colored with iodine vapor, the portion corresponding to TG was cut out, and the amount of TG biosynthesized was measured with a liquid scintillation counter.
# [1] = alternatives: IC50 less than 10 μM, or at least 30% inhibition at 1 μM, or at least 50% inhibition at 10 μM
# [2] = alternatives: IC50 at least 10 μM and less than 100 μM, or at least 5% and less than 30% inhibition at 1 μM, or at least 30% and less than 50% inhibition at 10 μM
pIC50 [1],pIC50 [2],Compound
> 5.00,–,"Cc1c(-c2cc3cc(OCc4ccc(Cl)c(Cl)c4)ccc3o2)oc(=O)c(C)c1O [Example 159, 6-(5-(3,4-dichlorobenzyloxy)benzofuran-2-yl)-3,5-dimethyl-4-hydroxy-2H-pyran-2-one]"
> 5.00,–,"Cc1c(-c2cc3ccc(OC4CCCc5ccccc54)cc3o2)oc(=O)c(C)c1O (stereo not shown) [Example 170, 3,5-dimethyl-4-hydroxy-6-(6-(1,2,3,4-tetrahydronaphthalen-1-yloxy)benzofuran-2-yl)-2H-pyran-2-one]"
–,4.00 to 5.00,"Cc1c(-c2cc3cc(OCc4ccc5ccccc5c4)ccc3o2)oc(=O)c(C)c1O [Example 175, 3,5-dimethyl-4-hydroxy-6-(5-(2-naphthylmethoxy)benzofuran-2-yl)-2H-pyran-2-one]"
–,4.00 to 5.00,"Cc1c(-c2cc3cc(OCC4COc5ccccc5O4)ccc3o2)oc(=O)c(C)c1O (stereo not shown) [Example 177, 6-(5-(1,4-benzodioxan-2-ylmethoxy)benzofuran-2-yl)-3,5-dimethyl-4-hydroxy-2H-pyran-2-one]"
–,4.00 to 5.00,"CCC=CCCOc1ccc2oc(-c3oc(=O)c(C)c(O)c3C)cc2c1 [Example 179, 3,5-dimethyl-6-(5-(3-hexen-1-yloxy)benzofuran-2-yl)-4-hydroxy-2H-pyran-2-one]"
–,4.00 to 5.00,"CC#CCOc1ccc2oc(-c3oc(=O)c(C)c(O)c3C)cc2c1 [Example 181, 6-(5-(2-butyn-1-yloxy)benzofuran-2-yl)-3,5-dimethyl-4-hydroxy-2H-pyran-2-one]"
–,4.00 to 5.00,"Cc1c(-c2cc3cc(OCC4COC(C)(C)O4)ccc3o2)oc(=O)c(C)c1O (stereo not shown) [Example 183, 3,5-dimethyl-6-(5-(2,2-dimethyl-1,3-dioxolan-4-ylmethoxy)benzofuran-2-yl)-4-hydroxy-2H-pyran-2-one]"
–,4.00 to 5.00,"CCOCCOc1ccc2oc(-c3oc(=O)c(C)c(O)c3C)cc2c1 [Example 185, 3,5-dimethyl-6-(5-(2-ethoxyethoxy)benzofuran-2-yl)-4-hydroxy-2H-pyran-2-one]"
–,4.00 to 5.00,"Cc1c(-c2cc3cc(OCC4(C)COC4)ccc3o2)oc(=O)c(C)c1O [Example 187, 3,5-dimethyl-4-hydroxy-6-(5-(3-methyloxetan-3-ylmethoxy)benzofuran-2-yl)-2H-pyran-2-one]"
–,4.00 to 5.00,"C=CCCCCOc1ccc2oc(-c3oc(=O)c(C)c(O)c3C)cc2c1 [Example 191, 3,5-dimethyl-6-(5-(5-hexen-1-yloxy)benzofuran-2-yl)-4-hydroxy-2H-pyran-2-one]"
–,4.00 to 5.00,"Cc1c(-c2cc3cc(OCC(c4ccccc4)c4ccccc4)ccc3o2)oc(=O)c(C)c1O [Example 195, 3,5-dimethyl-6-(5-(2,2-diphenylethoxy)benzofuran-2-yl)-4-hydroxy-2H-pyran-2-one]"
–,4.00 to 5.00,"COc1ccc(C(Oc2ccc3oc(-c4oc(=O)c(C)c(O)c4C)cc3c2)c2ccc(OC)cc2)cc1 [Example 201, 6-(5-(bis(4-methoxyphenyl)methoxy)benzofuran-2-yl)-3,5-dimethyl-4-hydroxy-2H-pyran-2-one]"
–,4.00 to 5.00,"Cc1c(-c2cc3cc(OCCCc4ccccc4)ccc3o2)oc(=O)c(C)c1O [Example 203, 3,5-dimethyl-4-hydroxy-6-(5-(3-phenylpropoxy)benzofuran-2-yl)-2H-pyran-2-one]"
–,4.00 to 5.00,"Cc1c(-c2cc3cc(OCC4CCCCC4)ccc3o2)oc(=O)c(C)c1O [Example 207, 6-(5-(cyclohexylmethoxy)benzofuran-2-yl)-3,5-dimethyl-4-hydroxy-2H-pyran-2-one]"
–,4.00 to 5.00,"Cc1c(-c2cc3cc(OCCOCc4ccccc4)ccc3o2)oc(=O)c(C)c1O [Example 213, 6-(5-(2-(benzyloxy)ethoxy)benzofuran-2-yl)-3,5-dimethyl-4-hydroxy-2H-pyran-2-one]"

Compound,pIC50 [1],pIC50 [2]
"CCCCOc1ccc(COc2ccc3oc(-c4oc(=O)c(C)c(O)c4C)cc3c2)cc1 [Example 163, 6-(5-(4-n-butoxybenzyloxy)benzofuran-2-yl)-3,5-dimethyl-4-hydroxy-2H-pyran-2-one]",> 5.00,–
